Experimental data: publication PMC4672894, “Bromodomain Proteins Contribute to Maintenance of Bloodstream Form Stage Identity in the African Trypanosome” (PLoS Biology, 2015)

Assays:
Assay in all cases: isothermal titration calorimetry
Format in all cases: binding
[1] = target: T1, Bdf3 bromodomain (Bdf3^32-150) (Trypanosoma brucei, UniProt Q383S2)
T1 construct: gene Tb11.01.1830; bromodomain, residues 32-150, amplified from genomic DNA, pET28a with N-terminal PreScission-cleavable His6 tag, E. coli; strain-construction section prints a conflicting locus Tb427.01.1830
T1 sequence (Q383S2 32-150): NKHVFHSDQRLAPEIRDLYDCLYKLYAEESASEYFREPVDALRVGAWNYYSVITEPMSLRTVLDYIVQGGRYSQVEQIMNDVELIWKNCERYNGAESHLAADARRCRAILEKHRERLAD
Text: isothermal titration calorimetry on Bdf3 bromodomain (Bdf3^32-150) | confirmed direct and specific binding of I-BET151 to their AcK recognition sites

[2] = target: T2, Bdf2 bromodomain (Bdf2^9-123) (Trypanosoma brucei, UniProt Q38AM1)
T2 construct: gene Tb10.6k15.3240; bromodomain, residues 9-123, amplified from genomic DNA, pET28a with N-terminal PreScission-cleavable His6 tag, E. coli; crystal model residues 9-114
T2 sequence (Q38AM1 9-123): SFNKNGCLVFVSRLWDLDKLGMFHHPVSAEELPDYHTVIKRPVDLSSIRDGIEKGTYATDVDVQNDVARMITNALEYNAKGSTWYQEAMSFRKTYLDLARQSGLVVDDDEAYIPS
Text: isothermal titration calorimetry on Bdf2 bromodomain (Bdf2^9-123) | confirmed direct and specific binding of I-BET151 to their AcK recognition sites

[3] = target: T2, Bdf2 bromodomain (Bdf2^9-123); conditions: 15°C, pH 7.5, 20 mM Hepes, 150 mM NaCl, 0.5 mM TCEP, 1% DMSO
[4] = target: T1, Bdf3 bromodomain (Bdf3^32-150); conditions: 15°C, pH 7.5, 20 mM Hepes, 150 mM NaCl, 0.5 mM TCEP, 1% DMSO

Structure (SMILES) | Kd [1] [µM] | Kd [2] [µM] | no binding detected [3] | no binding detected [4]
COc1cc2c(cc1-c1c(C)noc1C)ncc1[nH]c(=O)n([C@H](C)c3ccccn3)c12 [I-BET151] | 175 ± 10 | 225 ± 5 |  | 
Cc1sc2c(c1C)C(c1ccc(Cl)cc1)=N[C@@H](CC(=O)OC(C)(C)C)c1nnc(C)n1-2 [JQ1] |  |  | we could not detect binding of another well characterized bromodomain inhibitor, JQ1 | we could not detect binding of another well characterized bromodomain inhibitor, JQ1
